Results published in ChEMBL document CHEMBL1124124, “Synthesis and interaction with uridine phosphorylase of 5'-deoxy-4',5-difluorouridine, a new prodrug of 5-fluorouracil” (J Med Chem, 1988).

Legend:
[1] = Half life at pH 1; format: ADME; details: buffer
[2] = Half life at pH 7.5; format: ADME; details: buffer
[3] = test system: L1210; assay: Inhibition of cell growth of L1210 mouse Leukemia cells; format: functional, cell-based
[4] = Half life at pH 7.5; Not detectable hydrolysis after 7 days; format: ADME; details: buffer, pH 7.5, 168 h

SMILES	half-life [1] [h]	half-life [2] [h]	IC50 [3] [nM]	T1/2 [4]
C[C@@]1(F)OC(n2cc(F)c(=O)[nH]c2=O)[C@H](O)[C@@H]1O (some centres not stated)	0.5	12	300	–
C[C@H]1O[C@@H](n2cc(F)c(=O)[nH]c2=O)[C@H](O)[C@@H]1O [DOXIFLURIDINE]	250	–	3000	No detectable hydrolysis
O=c1[nH]cc(F)c(=O)[nH]1 [FLUOROURACIL]	–	–	300	–
